{
  "source": "paper PMC5983862",
  "about": "“Insight into small molecule binding to the neonatal Fc receptor by X-ray crystallography and 100 kHz magic-angle-spinning NMR” (PLoS Biology, 2018)",
  "key": {"[1]": {"target": "T1, neonatal Fc receptor (FcRn) α-chain, extracellular domain (FcRnECD) (Homo sapiens, UniProt P55899+P61769)", "T1 construct": "gene FCGRT; extracellular domain (ECD) (amino acids 1–297) of human FcRn α-chain, with human β2m; with β2-microglobulin (β2m, B2M)", "T1 sequence (P55899 24-297)": "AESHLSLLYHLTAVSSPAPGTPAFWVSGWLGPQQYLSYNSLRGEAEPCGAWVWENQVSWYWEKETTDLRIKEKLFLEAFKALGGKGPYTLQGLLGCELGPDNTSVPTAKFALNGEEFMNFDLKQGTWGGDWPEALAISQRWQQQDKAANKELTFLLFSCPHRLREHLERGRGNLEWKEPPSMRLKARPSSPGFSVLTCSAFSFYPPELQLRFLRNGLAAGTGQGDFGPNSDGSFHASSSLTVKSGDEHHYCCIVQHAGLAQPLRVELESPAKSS", "T1 sequence (P61769 21-119)": "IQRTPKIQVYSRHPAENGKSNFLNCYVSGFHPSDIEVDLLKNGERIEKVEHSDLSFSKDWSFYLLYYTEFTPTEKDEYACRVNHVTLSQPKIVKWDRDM", "test": "SPR Kd; X-ray crystal structure; MAS NMR chemical-shift perturbations", "format": "binding"}, "[2]": {"target": "T1, neonatal Fc receptor (FcRn) α-chain, extracellular domain (FcRnECD)", "test": "SPR Kd; X-ray crystal structure; […] CPMG and STD NMR fragment screen", "format": "binding"}, "[3]": {"target": "T1, neonatal Fc receptor (FcRn) α-chain, extracellular domain (FcRnECD)", "test": "affinity measurement (SPR implied)", "format": "binding"}, "[4]": {"target": "soluble extracellular domain of the neonatal Fc receptor (FcRnECD), heterodimer of α-chain and β2m, from insect cells (human)", "test": "crystal structure; FcRnECD from insect cells; crystals at pH 3 (PEG 6000, citric acid/ammonium citrate) and at pH 8.5 (Bis-Tris propane, NaI, PEG 3350); compounds soaked into pH 3 crystals; two heterodimers in the asymmetric unit"}},
  "data": [
    {"compound": "COC(=O)C1=C(c2cccnc2)Nc2ncnn2C1c1cc(F)cc(F)c1", "note": "(stereo not shown) [UCB-FcRn-303, Methyl 7-(3,5-difluorophenyl)-5-(3-pyridyl)-4,7-dihydro-[1,2,4]triazolo[1,5-a]pyrimidine-6-carboxylate]", "values": [
      {"measurement": "Kd", "setting": "[1]", "result": 2400, "unit": "nM"}
    ]},
    {"compound": "CC(=O)C1=C(C)Nc2ncnn2C1c1cccc(F)c1", "note": "(racemic) [UCB-FcRn-84, 1-[7-(3-fluorophenyl)-5-methyl-4,7-dihydro-[1,2,4]triazolo[1,5-a]pyrimidin-6-yl]ethanone]", "values": [
      {"measurement": "Kd", "setting": "[2]", "result": "~80000", "unit": "nM"}
    ]},
    {"compound": "CC(=O)C1=C(C)Nc2ncnn2C1c1cc(F)cc(F)c1", "note": "(racemic) [1-[7-(3,5-Difluorophenyl)-5-methyl-4,7-dihydro-[1,2,4]triazolo[1,5-a]pyrimidin-6-yl]ethanone]", "values": [
      {"measurement": "Kd", "setting": "[3]", "result": 2400, "unit": "nM"}
    ]},
    {"compound": "soluble extracellular domain of the neonatal Fc receptor (FcRnECD), heterodimer of α-chain and β2m, from insect cells (complex)", "values": [
      {"measurement": "stoichiometry N", "setting": "[4]", "result": 2}
    ]}
  ]
}
